{"source": "patent US8936787B2", "about": "“Peptides promoting lipid efflux” (The United States of America as represented by the …, priority 2008, dated 2015)", "key": {"[1]": {"tested_on": "BHK and BHK-ABCA1 cells", "experiment": "Cholesterol efflux from BHK and BHK-ABCA1 cells", "assay_type": "cell-based", "conditions": "20 ug/ml free peptide, 18 hours", "protocol": "FIG. 23 is a graph illustrating the effect of 18A-C-II peptide on cholesterol efflux. BHK and BHK-ABCA1 cells were loaded with ^3H-cholesterol for 24 hours at 37° C. and then 20 ug/ml of the free 18A-C-II peptide was added as cholesterol acceptor to efflux for 18 hours. Percentage efflux was calculated by subtracting the radioactive counts in the blank from the radioactive counts in the presence of an acceptor and then dividing the result by the sum of the radioactive counts in the medium plus the cell fraction.\nThe effect of 18A-C-II peptide on cholesterol efflux was investigated by loading BHK and BHK-ABCA1 cells with ^3H-cholesterol for 24 hours at 37° C. and then adding 20 ug/ml of the free 18A-C-II peptide as cholesterol acceptor to efflux for 18 hours. Percentage efflux was calculated by subtracting the radioactive counts in the blank from the radioactive counts in the presence of an acceptor and then dividing the result by the sum of the radioactive counts in the medium plus the cell fraction."}, "[2]": {"tested_on": "C57B1/6 mice", "experiment": "Plasma triglycerides in C57B1/6 mice, 18A-C-II", "assay_type": "in vivo", "conditions": "1 mg (30 mg/kg) co-injected", "protocol": "FIG. 18 is a graph illustrating the ability of 18A-C-II:POPC peptide (peptide with SEQ ID NO: 70) to prevent hypertriglyceridemia. The 18A-C-II:POPC peptide was lipidated with POPC at the ratio of 1:7. Hypertriglyceridemia was induced in C57B1/6 mice by a 2 mg (60 mg/kg) bolus intravenous (IV) injection of free 5A peptide (Δ). […] In addition, a single IV dose of 1 mg of the 18A-C-II:POPC peptide lowered the plasma triglyceride levels in normal C57B1 mice (□) compared to saline (⋄).\n18A-C-II peptide (SEQ ID NO: 70) was complexed with POPC at a 1:7 molar ratio using a co-lyophilization procedure by which the free peptide and POPC were co-dissolved in glacial acetic acid and lypophilized. The dry powder was reconstituted with saline and heated between 37° C. to 50° C. to reconstitution, which results in a clear solution of particles containing both the 18A-C-II peptide and POPC.\nHypertriglyceridemia was induced in C57B1/6 mice by a 2 mg (60 mg/kg) bolus IV injection of free 5A peptide (A). […] In addition, a single IV dose of 1 mg of the 18A-C-II:POPC peptide lowered the plasma triglyceride levels in normal C57B1 mice (□) compared to saline (⋄)."}}, "note": "“Also recorded” adds a separate entry of the source.", "data": [{"sequence": "DWLKAFYDKVAEKLKEAFPDLYSKSTAAMSTYTGIFTDQVLSVLKGEE [18A-C-II]", "values": [{"measurement": "cholesterol efflux, BHK-ABCA1 versus BHK cells", "setting": "[1]", "value": "significant difference"}, {"measurement": "increase in plasma triglycerides induced by free 5A peptide (60 mg/kg IV)", "setting": "[2]", "value": "significantly reduced; also recorded: significantly halted"}]}]}
